Structures can show the parent of a compound that is named as a salt.
Experiments:
[1] = molecular target: T1, MC4R (melanocortin-4 receptor) (Homo sapiens, UniProt P32245); test: Luciferase assay (CRE-LUC, HEK MC4R-Luc cells); type: cell-based; conditions: 5 h incubation, concentration inducing 50% of each agonist's own maximum luminescence
T1 construct: expressed in transfected cells
Procedure: In order to measure the agonist ability against MC4R (melanocortin-4 receptor), a cell line that permanently expresses the luciferase gene (CRE-LUC) under the control of MC4R and CRE (cAMP response element) was established. After a mammalian cell expression vector (pCDNA3 (Neo)) (Invitrogen) containing the MC4R gene was prepared, human embryonic kidney (HEK) cell lines were transformed by using Lipofectamine 2000 (Invitrogen) together with a vector (pCRE-Luc)(Stratagen) expressing a luciferase gene (CRE-LUC) under the control of a cAMP response element (CRE). Transformed cell lines (HEK MC4R-Luc) were incubated in a 37° C. incubator in the presence of 5% CO2 for 24 hours by using Dulbecco's Modified Eagles Medium (DMEM) containing 10% Heat-Inactivated Fetal Bovine Serum (GIBCO/BRL). The cell lines were incubated for four days in the presence of Dulbecco's Modified Eagles Medium (DMEM) containing 10 ml of selection medium (10% Heat-Inactivated Fetal Bovine Serum (GIBCO/BRL), 100 unit/ml of penicillin (GIBCO/BRL), 100 unit/ml of streptomycin (GIBCO/BRL), 800 μg/ml of Geneticin (G418) (GIBCO/BRL). The process of removing cells killed by the selection medium by replacing the medium with 10 ml of a new selection medium was repeated three times, once every 4 days. Individual colonies formed by the finally selected and propagated clones were transferred under a microscope to a 24-well cell culture plate containing 1 ml of selection medium per well and incubated for 4 days. Forskolin (SIGMA) was treated to a final concentration of 10 μM, and then incubated for five hours in a 37° C. incubator in the presence of 5% CO2. Each well was treated with 50 μl of a Bright-Glo luciferase reagent (Promega) and left at room temperature for 15 minutes, and then the luminescence of each well was measured by using a luminometer (Victor).
HEK MC4R-Luc cells were added to each well of a 96-well luminometer cell culture plate (Costar) to a size of 2.5×10^4 cells in 100 μl of a culture medium and then incubated in a 37° C. incubator in the presence of 6% CO2 for 18 hours. […] Each well was treated with 50 μl of a Bright-Glo luciferase reagent (Promega) and left at room temperature for five minutes, and then the luminescence of each well was measured by using a luminometer (Victor). […] EC0.5 MSH is expressed as a concentration that induces 50% of the maximum amount of luminescence that can be induced by NDP-α-MSH, and EC50 is expressed as a concentration that induces 50% of the maximum amount of luminescence that can be induced by each agonist. The measurements were measured using statistical software (Prizm).

MC4R = MC4R (Homo sapiens, UniProt P32245); test: Binding affinity (125I-NDP-α-MSH displacement, membranes of HEK-293 cells expressing MC4R); set-up: expressed in transfected cells; host or cells: HEK-293 cells, membrane preparation; conditions: 0.02 nM 125I-NDP-α-MSH, 37° C. for two hours, pH 7.0
Text: Five subtypes of melanocortin receptor (MCR) in vivo are known, and it is known that MC4R, which is Subtype 4, is involved in energy metabolism and weight control. Since other MCR subtypes are involved in the regulation of various functions in vivo such as skin pigmentation, energy homeostasis, and exocrine functions, securing selectivity for MC4R of MC4R agonist compounds is very important in preventing possible side effects in the future. Therefore, the receptor binding abilities of MC4R agonists for each MCR subtype were measured.
After the CHO-K 1 cell line expressing human recombinant MC1R and the HEK-293 cell lines expressing MC3R, MC4R and MC5R were established, membranes were collected from each cell line. In a 96-well cell culture plate, 3 μg MC1R membrane and 0.04 nM ^125I-NDP-α-MSH per well were reacted at 37° C. for two hours. 3 μg MC3R and MC5R membrane and 0.035 nM ^125I-NDP-α-MSH were reacted at 37° C. for one hour, and […] MC4R membrane and 0.02 nM ^125I-NDP-α-MSH were reacted at 37° C. for two hours. At this time, 25 mM HEPES-KOH adsorption buffer (pH 7.0) containing MCR agonist diluted at each step concentration was added to each well and reacted. The reacted solution was transferred to a filter and washed with an adsorption buffer, and then radioactivity was measured. The value excluding the non-specific binding amount in the presence of 1 μM (MC1R) and 3 μM (MC3R, MC4R, MC5R) of NDP-α-MSH from each total binding amount was used as specific binding amounts of ^125I-NDP-α-MSH. The degree to which the ^125I-NDP-a-MSH specific binding was inhibited by the agonist diluted at each step concentration was measured. IC50 was expressed as the concentration of each agonist that inhibited specific binding of 50% of ^125I-NDP-α-MSH.
Tables 4-1 and 4-2 show the results of measuring the binding of melanocortin receptors of the compounds obtained by the above experiment in Ki (nM) units.

MC4R, sequence (P32245 whole entry): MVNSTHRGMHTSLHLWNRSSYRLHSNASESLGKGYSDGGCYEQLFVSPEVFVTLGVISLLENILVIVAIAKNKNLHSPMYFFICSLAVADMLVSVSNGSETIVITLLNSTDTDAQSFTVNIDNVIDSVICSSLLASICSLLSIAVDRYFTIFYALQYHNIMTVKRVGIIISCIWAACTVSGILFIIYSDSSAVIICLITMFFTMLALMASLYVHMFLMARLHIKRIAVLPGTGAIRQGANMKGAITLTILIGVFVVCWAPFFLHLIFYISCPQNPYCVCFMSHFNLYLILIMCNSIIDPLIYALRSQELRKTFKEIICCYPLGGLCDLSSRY
T1 sequence (P32245 whole entry, species assumed): as the sequence (P32245 whole entry) above

Row | EC50 [1] | Ki (MC4R; Table 4-1) | Ki (MC4R; Table 4-2) | SMILES
1 | 5.61 nM | 410 nM | 530 nM | CC(=O)N(C1CCC(C)(C)CC1)[C@H]1C[C@@H](C(=O)N2CCOCC2)N(C(=O)[C@@H]2CN(C(C)(C)C)C[C@H]2c2ccc(Cl)cc2)C1 [Comparative Example 2 (A96), N-((3S,5S)-1-((3S,4R)-1-(tert-butyl)-4-(4-chlorophenyl)pyrrolidine-3-carbonyl)-5-(morpholine-4-carbonyl)pyrrolidin-3-yl)-N-(4,4-dimethylcyclohexyl)acetamide hydrochloride, reference compound]
2 | 3.82 nM | – | – | CC(C)C(=O)N(C1CCC(C)(C)CC1)[C@H]1C[C@@H](C(=O)N2CCOCC2)N(C(=O)[C@@H]2CN(C(C)(C)C)C[C@H]2c2ccc(Cl)cc2)C1 [Example 5, N-((3S,5S)-1-((3S,4R)-1-(tert-butyl)-4-(4-chlorophenyl)pyrrolidine-3-carbonyl)-5-(morpholine-4-carbonyl)pyrrolidin-3-yl)-N-(4,4-dimethylcyclohexyl)isobutyramide hydrochloride]
3 | 14.7 nM | 1450 nM | 1780 nM | CC(=O)N(C1CCC(C)(C)CC1)[C@H]1C[C@@H](C(=O)N2CCOCC2)N(C(=O)[C@@H]2CN(C(C)(C)C)C[C@H]2c2ccc(F)cc2F)C1 [Comparative Example 1 (A95), N-((3S,5S)-1-((3S,4R)-1-(tert-butyl)-4-(2,4-difluorophenyl)pyrrolidine-3-carbonyl)-5-(morpholine-4-carbonyl)pyrrolidin-3-yl)-N-(4,4-dimethylcyclohexyl)acetamide hydrochloride, reference compound]

Reference: patent US20240190856A1, “MELANOCORTIN-4 RECEPTOR AGONIST” (LG CHEM, LTD., priority 2021, published 2024)
